# Tests used:
# C. albicans = test: Checkerboard interaction with conventional antifungals (FICI), C. albicans; type: cell-based, Candida albicans; conditions: for FICI: 405-nm light
# Description: A modified checkerboard assay was used to study the interaction of visible-light-activated MMs with conventional antifungals in C. albicans. […] The type of interaction between MMs and conventional antifungals was assessed by calculating the fractional inhibitory concentration index (FICI), with a FICI of ≤0.5, 0.5<x≤4, or >4, denoting synergistic, additive, or antagonistic interactions, respectively (Odds, 2003).
# The interaction of MMs with conventional antifungal agents in C. albicans was investigated by determining the MIC of different antifungals alone and after treatment with visible-light-activated MMs using a modified broth microdilution checkerboard assay (Cantón et al., 2005) in an 8×8-well configuration. […] The fractional inhibitory concentration index (FICI) was determined as the sum of the MIC of the MM and the antifungal drug when used in combination divided by their MIC when used alone. An FICI index of ≤0.5, 0.5<x≤4, or >4 indicates synergistic, additive, and antagonistic interactions, respectively (Odds, 2003).
# HEK293T cells = test: Toxicity to HEK293T cells (CellTiter-Glo) and therapeutic index; type: cell-based, human; conditions: ratio between IC50 (HEK293T) and MIC
# Description: The toxicity of visible-light-activated MMs to mammalian cells was investigated in human embryonic kidney cells (HEK293T) treated with increasing MM concentrations and 87.6 J cm^−2 of 405-nm light. […] The MM concentration that reduced viability by 50% (IC50), calculated from dose-response curves (FIG. 16C), ranged from 1.61-6.02 µM (FIG. 16D). The IC50 and MIC were used to calculate the therapeutic index. With a therapeutic index ≥1 (FIG. 16D), MM 1 was used for in vivo and ex vivo studies.
# The biocompatibility of MMs with […] HEK293T cells was assessed using the CellTiter-Glo® Luminescent Cell Viability Assay (Promega, WI, USA) per the manufacturer's instructions by treating cells with increasing concentrations of different MMs plus 405-nm light (87.6 J cm^−2). Dose-response curves were used to determine the MM concentrations that reduced cell viability by 50% (IC50). The therapeutic index was calculated as the ratio between the IC50 and the MIC.
smiles,measurement,setting,value
"C[C@@H]1Cc2ccc3ccccc3c2/C1=C1\c2ccccc2Sc2cc(NCCN(C)C)ccc21 [MM 1, N^1N^1-dimethyl-N^2-(9-(2-methyl-2,3-dihydro-1H-cyclopenta[a]naphthalen-1-ylidene)-9H-thioxanthen-3-yl) ethane-1,2-diamine]",type of interaction with conventional antifungals,C. albicans,synergized with all antifungals tested
same,FICI,C. albicans; MM 1 + ciclopirox,0.093
same,FICI,C. albicans; MM 1 + fluconazole,0.500
same,FICI,C. albicans; MM 1 + voriconazole,0.500
same,therapeutic index,HEK293T cells,≥ 1
